Source: patent publication US20090203694A1, “INHIBITORS OF UNDECAPRENYL PYROPHOSPHATE SYNTHASE” (priority 2006, published 2009)

Target: T1, Streptococcus pneumonia UPPS (Streptococcus pneumoniae serotype 4, UniProt Q97SR4)
T1 construct: His-tag (N)
T1 sequence (Q97SR4 1-252): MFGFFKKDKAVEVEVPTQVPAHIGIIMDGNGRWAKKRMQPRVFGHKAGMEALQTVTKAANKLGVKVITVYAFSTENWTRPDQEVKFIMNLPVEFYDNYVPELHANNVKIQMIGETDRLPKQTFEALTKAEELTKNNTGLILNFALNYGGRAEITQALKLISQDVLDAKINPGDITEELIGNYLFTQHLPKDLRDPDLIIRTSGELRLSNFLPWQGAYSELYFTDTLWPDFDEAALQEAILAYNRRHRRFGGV
Test: Determination of binding to UPPS (inorganic phosphate release, Biomol Green)
Type: biochemical
Conditions: FPP 3 μM, IPP 16 μM; 20 minutes preincubation with compound
Experimental: The ability of several of the compounds described herein to bind to UPPS was also tested as follows.
Streptococcus pneumonia UPPS was cloned into pET-15b, expressed and purified as an N-terminal His-tag fusion using affinity chromatography. The working stock of UPPS was prepared by mixing the purified enzyme with liposome made from E. coli total lipids extract (Avanti Polar Lipis, Inc., Alabaster, Ala.). The substrates FPP and IPP and inorganic pyrophosphatase were purchased from Sigma. Biomol Green reagent was from Biomol International (Plymouth Meeting, Pa.). All other chemicals were from Sigma at the highest grade.
For testing a compound, UPPS was first incubated with the compound at desired concentrations for 20 minutes in the UPPS reaction buffer that contained 100 mM Tris-HCl, pH 7.3, 50 mM KCl, 1 mM MgCl2, 0.01% Triton X-100, and 20 μg/mL BSA. The reaction was then initiated by the addition of a mixture of FPP, IPP, and E. coli […] made in the same UPPS reaction buffer. The final concentrations for FPP and IPP were 3 μM and 16 μM, respectively. The inorganic phosphate generated in the reactions was then quantified with Biomol Green reagent, which was then used to determine the rate of the reaction and the inhibitory activity of the compound.
For example, the results of the binding assay for several compounds are shown the table below: […]

| IC50 | SMILES |
| --- | --- |
| 0.01 to 10 µM | CC(C)CC1CC(O)=C(C(=O)Nc2ccc(-n3cccn3)cc2)C(=O)N1 (centres unmarked) [compound 192] |
| 0.01 to 10 µM | O=C(Nc1ccc(C2CCCCC2)cc1)C1=C(O)CC(C2CCCCC2)NC1=O (centres unmarked) [compound 185] |
| 10 to 50 µM | CC(C)CC1CC(O)=C(C(=O)Nc2ccc(S(=O)(=O)c3ccccc3)cc2)C(=O)N1 (centres unmarked) [compound 202] |
| 0.01 to 10 µM | O=C1NCC(CC2CCCCC2)C(O)=C1C(=O)Nc1ccc(-n2ccnc2)cc1 (centres unmarked) [compound 221] |
| 0.01 to 10 µM | O=C(Nc1ccc(-n2cccn2)cc1)C1=C(O)CC(C2CCCCC2)NC1=O (centres unmarked) [compound 198] |
| 0.01 to 10 µM | O=C(Nc1ccc(OC2CCCCC2)cc1)C1=C(O)CC(c2ccccc2)NC1=O (centres unmarked) [compound 166] |
| 0.01 to 10 µM | O=C(Nc1ccc(-c2ccccc2)cc1)C1=C(O)CC(Cc2ccccc2)NC1=O (centres unmarked) [compound 187] |
| 0.01 to 10 µM | O=C(Nc1ccc(-n2cccn2)cc1)C1=C(O)CC(c2ccccc2)NC1=O (centres unmarked) [compound 181] |
| 0.01 to 10 µM | O=C(Nc1ccc(Oc2ccccc2)cc1)C1=C(O)CC(C2CCCCC2)NC1=O (centres unmarked) [compound 189] |
| 0.01 to 10 µM | O=C(Nc1ccc(-c2ccccc2)cc1)C1=C(O)CC(c2ccccc2)NC1=O (centres unmarked) [compound 169] |
| 0.01 to 10 µM | CC(C)CC1CC(O)=C(C(=O)Nc2ccc(OC(F)(F)F)cc2)C(=O)N1 (centres unmarked) [compound 183] |
| 0.01 to 10 µM | O=C(Nc1ccc(C2CCCCC2)cc1)C1=C(O)C(c2ccccc2)NC1=O (centres unmarked) [compound 116] |
| 0.01 to 10 µM | O=C(Nc1ccc(N2CCCCC2)cc1)C1=C(O)CC(Cc2ccccc2)NC1=O (centres unmarked) [compound 174] |
| 0.01 to 10 µM | CC(C)CC1NC(=O)C(C(=O)Nc2ccc(Oc3ccccc3)cc2)=C1O (centres unmarked) [compound 123] |
| 0.01 to 10 µM | CC(C)CC1NC(=O)C(C(=O)Nc2ccc(Nc3ccccc3)cc2)=C1O (centres unmarked) [compound 104] |
| 0.01 to 10 µM | O=C(Nc1ccc(N2CCCCC2)cc1)C1=C(O)C(CCc2ccccc2)NC1=O (centres unmarked) [compound 143] |
| 0.01 to 10 µM | COc1ccc(NC(=O)C2=C(O)CC(c3ccccc3)NC2=O)cc1 (centres unmarked) [compound 170] |
| 0.01 to 10 µM | CC(C)CC1CC(O)=C(C(=O)Nc2ccc(C3CCCCC3)cc2)C(=O)N1 (centres unmarked) [compound 182] |
| 0.01 to 10 µM | O=C(Nc1ccc(N2CCCCC2)cc1)C1=C(O)C(CCc2ccccc2)NC1=O (centres unmarked) [compound 97] |
| 0.01 to 10 µM | O=C(Nc1ccc(-c2ccccc2)cc1)C1=C(O)C(Cc2c[nH]cn2)NC1=O (centres unmarked) [compound 113] |
| 0.01 to 10 µM | CC(C)CC1NC(=O)C(C(=O)Nc2ccc(Oc3nc4ccccc4s3)cc2)=C1O (centres unmarked) [compound 126] |
| 0.01 to 10 µM | O=C(Nc1ccc(Nc2ccccc2)cc1)C1=C(O)C(CC2CCCCC2)NC1=O (centres unmarked) [compound 103] |
| 0.01 to 10 µM | CCN1CCN(c2ccc(NC(=O)C3=C(O)C(CC(C)C)NC3=O)cc2)CC1 (centres unmarked) [compound 148] |
| 0.01 to 10 µM | COc1ccc(-c2nc(NC(=O)C3=C(O)CC(Cc4ccccc4)NC3=O)nn2-c2ccc(CO)cc2)cc1 (centres unmarked) [compound 177] |
| 0.01 to 10 µM | O=C(Nc1ccc(N2CCCCC2)cc1)C1=C(O)CC(c2ccccc2)NC1=O (centres unmarked) [compound 168] |
| > 50 µM | CC1CC(O)=C(C(=O)Nc2ccc(Oc3ccccc3)cc2)C(=O)N1 (centres unmarked) [compound 223] |
| 0.01 to 10 µM | O=C(Nc1ccc(C2CCCCC2)cc1)C1=C(O)CC(c2ccccc2)NC1=O (centres unmarked) [compound 164] |
| 0.01 to 10 µM | O=C(Nc1ccc(S(=O)(=O)c2ccccc2)cc1)C1=C(O)CC(C2CCCCC2)NC1=O (centres unmarked) [compound 206] |
| 0.01 to 10 µM | O=C(Nc1ccc(C(F)(F)F)cc1)C1=C(O)CC(c2ccccc2)NC1=O (centres unmarked) [compound 167] |

Continued, molecule first:

| SMILES | IC50 |
| --- | --- |
| CCCCCCOc1ccc(NC(=O)C2=C(O)C(CCc3ccccc3)NC2=O)cc1 (centres unmarked) [compound 77] | 0.01 to 10 µM |
| O=C(Nc1ccc(CO)cc1)C1=C(O)C(Cc2ccccc2)NC1=O (centres unmarked) [compound 22] | > 50 µM |
| Cc1ccc2nc(-c3ccc(NC(=O)C4=C(O)C(c5ccccc5)NC4=O)cc3)sc2c1 (centres unmarked) [compound 6] | 0.01 to 10 µM |
| COc1cccc(NC(=O)C2=C(O)C(c3ccccc3)NC2=O)c1 (centres unmarked) [compound 12] | 0.01 to 10 µM |
| O=C(NC1CCCCC1)C1=C(O)C(Cc2ccccc2)NC1=O (centres unmarked) [compound 23] | > 50 µM |
| N#Cc1ccc(-c2ccc(NC(=O)C3=C(O)C(Cc4ccccc4)NC3=O)cc2)cc1 (centres unmarked) [compound 66] | 0.01 to 10 µM |
| N#Cc1ccccc1Oc1cccc(NC(=O)C2=C(O)C(c3ccccc3)NC2=O)c1 (centres unmarked) [compound 8] | 0.01 to 10 µM |
| CCCCCCOc1ccc(NC(=O)C2=C(O)C(CC(C)C)NC2=O)cc1 (centres unmarked) [compound 52] | 0.01 to 10 µM |
| O=C(Nc1ccc(C2CCCCC2)cc1)C1=C(O)C(c2ccccc2)NC1=O (centres unmarked) [compound 56] | 0.01 to 10 µM |
| O=C(Nc1ccc(N2CCOCC2)cc1)C1=C(O)C(c2ccccc2)NC1=O (centres unmarked) [compound 13] | 10 to 50 µM |
| CC(C)CC1NC(=O)C(C(=O)NCc2ccc(-c3cccs3)cc2)=C1O (centres unmarked) [compound 36] | 0.01 to 10 µM |
| CCC1C(O)=C(C(=O)Nc2ccc(C3CCCCC3)cc2)C(=O)N1C (centres unmarked) [compound 15] | 10 to 50 µM |
| O=C(Nc1ccc(-c2ccccc2)cc1)C1=C(O)C(c2ccccc2)NC1=O (centres unmarked) [compound 14] | 0.01 to 10 µM |
| O=C(Nc1ccc(C2CCCCC2)cc1)C1=C(O)C(c2ccccc2)NC1=O (centres unmarked) [compound 11] | 0.01 to 10 µM |
| Cc1ccc2nc(-c3ccc(NC(=O)C4=C(O)C(Cc5ccccc5)NC4=O)cc3)sc2c1 (centres unmarked) [compound 4] | 10 to 50 µM |
| O=C(Nc1ccc(C2CCCCC2)cc1)C1=C(O)C(Cc2ccccc2)NC1=O (centres unmarked) [compound 5] | 0.01 to 10 µM |
| CC(C)CC1NC(=O)C(C(=O)Nc2ccc(-c3ccccc3)cc2)=C1O (centres unmarked) [compound 81] | 0.01 to 10 µM |
| O=C(Nc1ccc(N2CCCCC2)cc1)C1=C(O)C(c2ccccc2)NC1=O (centres unmarked) [compound 7] | 0.01 to 10 µM |
| O=C(Nc1ccc(-c2ccccc2)cc1)C1=C(O)C(c2ccccc2)NC1=O (centres unmarked) [compound 16] | 0.01 to 10 µM |
| O=C(Nc1ccc(Oc2ccccc2)cc1)C1=C(O)C(CCc2ccccc2)NC1=O (centres unmarked) [compound 86] | 0.01 to 10 µM |
| O=C(Nc1ccc(Cc2ccccc2)cc1)C1=C(O)C(Cc2ccccc2)NC1=O (centres unmarked) [compound 10] | 0.01 to 10 µM |
| O=C(Nc1ccc(Oc2ncc(C(F)(F)F)cc2Cl)cc1)C1=C(O)C(Cc2ccccc2)NC1=O (centres unmarked) [compound 9] | 0.01 to 10 µM |
| O=C(Nc1cccc(Oc2ccccc2)c1)C1=C(O)C(CC2CCCCC2)NC1=O (centres unmarked) [compound 49] | 0.01 to 10 µM |
| CC(C)CC1NC(=O)C(C(=O)Nc2cccc(Oc3ccccc3)c2)=C1O (centres unmarked) [compound 70] | 0.01 to 10 µM |
| O=C(NCCSCc1c(Cl)cccc1Cl)C1=C(O)C(Cc2ccccc2)NC1=O (centres unmarked) [compound 54] | 10 to 50 µM |
| O=C(Nc1ccc(C2CCCCC2)cc1)C1=C(O)CN(Cc2ccccc2)C1=O [compound 19] | 0.01 to 10 µM |
| O=C(Nc1cccc(Oc2ccccc2)c1)C1=C(O)C(CCc2ccccc2)NC1=O (centres unmarked) [compound 80] | 0.01 to 10 µM |
